Reference: US20250186321A1, “FORMULATION USING AMINO ACID AND CARBOXYLIC ACID, ORGANIC SALT, AND COMPOSITION COMPRISING SAME AND USE THEREOF” (MIYOSHI OIL & FAT CO., LTD., priority 2021, published 2025)

Columns and labels:
[1] = Appearance of formulation (state at 25° C.); assay type: physicochemical; details: 25° C.
Procedure: Formulations 1 to 427 shown in Tables 1A to 1D were prepared by the above-described method using the components (A) and (B) at the compounding molar ratios shown in the tables, and their states at 25° C. were observed.

[2] = Hygroscopicity evaluation (moisture content); assay type: physicochemical; details: for Hygroscopicity test Moisture content after test: dried in vacuum at 60° C. for 18 hours, then 1 month at room temperature, Karl Fischer; for Presence or absence of hydrates / n-hydrate: hygroscopicity test, Table 3
Procedure: The working examples 460 to 470 and the comparative example 6 in Table 3 were completely dried in a vacuum dryer at 60° C. for 18 hours, and then left to stand still at room temperature for 1 month whose moisture contents were then measured using a Karl Fischer moisture meter (CA-200 manufactured by Mitsubishi Chemical Analytech Co., Ltd.) to evaluate their hygroscopicity.

[3] = Appearance of formulation (state at 25° C.); assay type: physicochemical; details: formulation at the compounding molar ratio listed
[4] = Water retention evaluation (moisture reduction rate); assay type: physicochemical; details: for Moisture eduction rate / Moisture content before test (A): 80 wt. % aqueous solution; for Moisture eduction rate: 24 hours at 35° C. and 25% RH, calculated from A and B; for Moisture content before test (A): Karl Fischer; for Presence or absence of hydrates: left until the moisture content remained unchanged, based on final moisture content; for n-hydrate: number of hydrated water based on final moisture content
Procedure: 80 wt. % aqueous solutions of the formulations (organic salts) of the working examples 428 to 459 and comparative examples 1 to 5 in Tables 2A and 2B were prepared, and the water contents were measured using a Karl Fischer moisture meter (CA-200 manufactured by Mitsubishi Chemical Analytech Co., Ltd.). It was confirmed that the water contents of them were 20.0 wt. % (moisture content before test: A). Each of the 1.0 g samples was added to a screw tube, and left uncovered to stand still for 24 hours in a constant temperature and humidity bath (KCL-2000W manufactured by Tokyo Rikakikai Co., Ltd.) which was set at 35° C. and 25% RH. Moisture contents after being left for 24 hours were measured again (moisture content after test: B) to evaluate their water retention property by using the following formula for calculating the moisture reduction rates. After that, it was left to stand still until the moisture content remained unchanged, and determinations of the hydrate and the number of hydrated water were made based on the final moisture contents. • Moisture content before test: A (%) • Moisture content after test: B (%)

[5] = system: Staphylococcus aureus; assay: Antibacterial property evaluation 1 (minimum inhibitory concentration, broth microdilution); assay type: cell-based; details: broth microdilution method
From the text: (§1) The following reagents, etc, were used for minimum inhibitory concentration (MIC) measurement and halo test. • Staphylococcus aureus: strain of NBRC15035, NITE • Escherichia coli: strain of […], NITE • Potassium lactate manufactured by Fujifilm Wako Pure Chemical • Medium of Muller-Hinton broth: Becton, Dickinson and Company • Media for revival of L-dried specimens “DAIGO” manufactured by Fujifilm Wako Pure Chemical • Calcium chloride manufactured by Fuji Film Wako Pure Chemical • Magnesium chloride manufactured by Fuji Film Wako Pure Chemical • Skim milk: Megmilk Snow Brand • Meat extract: from Solabia Biokar Diagnostics • Peptone: from Solabia Biokar Diagnostics • Sodium chloride manufactured by Fuji Film Wako Pure Chemical • Agar manufactured by Fuji Film Wako Pure Chemical
(§2) Working examples 556 to 583 and the comparative example 19 shown in Tables 8A and 8B were subjected to the minimum inhibitory concentration (MIC) test against Escherichia coli and Staphylococcus aureus by the broth microdilution method (as described in the standard method of the Japanese Society of Chemotherapy) to study antibacterial activities of the formulations (organic salt). Formulation (organic salt) concentrations at 250, 200, 150, 100, 50, 25, 12.5, 8, 4, 2, 0.8, 0.4, 0.2, 0.1, 0.05 mg/mL were evaluated, and the MICs are shown in Tables 8A and 8B.

[6] = system: Escherichia coli; assay: as above; assay type: cell-based; details: broth microdilution method
From the text: as §1, §2

[7] = Solubility evaluation of polyoxyethylene alkyl ether (AE) in the formulations; assay type: physicochemical; details: polyoxyethylene alkyl ether (Peletex 2465); left at 25° C. for 24 hours, visual
Procedure: Into 20 wt. % aqueous solutions of the formulations (organic salts) shown in Table 10 are dissolved methylparaben (manufactured by Tokyo Kasei, hereinafter, paraben) at 1.0 wt. %, 0.5 wt. % and 0.25 wt. % at 80° C. to prepare the respective antibacterial compositions.
Polyoxyethylene alkyl ether (hereinafter referred to as AE) which is an antiviral substance recognized to be effective against viruses was also subjected to the similar procedure to evaluate the solubility based on the above-mentioned criteria. As the AE, Peletex 2465, manufactured by Miyoshi Oil & Fats Co., Ltd., was used. (Table 10)

[8] = Evaluation on permeability to skin (tape stripping, ascorbyl glucoside); assay type: in vivo; details: scale 1(Slow) to 5(Fast), 10 wt. % aqueous solution with 5 wt. % ascorbyl glucoside, layers 1 to 8, 5 test subjects
Procedure: As for the comparative example 33, ascorbyl glucoside was added so as to be 5% by mass with respect to water to prepare a sample solution. Then, a cotton material impregnated with the prepared 750 μL sample solution was applied to a 1 cm×3 cm area of the inner side of an upper arm for each of the 5 test subjects who have been kept in quiet for 30 minutes under constant temperature and humidity, and allowed to stand still for 5 minutes. After removing the cotton material, a new cotton material was used to remove the sample having been left on the skin surface and then allowed to stand still for 30 minutes. The horns in the first to eighth layers were then harvest from the application site using a Cellotape® (manufactured by Nichiban Co., Ltd.), and all of the layers obtained from the tape were used as samples for assay.
The obtained sample for assay was then extracted with 2 ml of ion-exchange water over the course of 10 min. […] The measured values of the samples for assay that were harvested from the 5 test subjects were averaged, and the averaged value was regarded as the permeation amount (μg/cm^2) to make a comparison of the total permeation amounts for the first to eighth layers. […]

[9] = system: Staphylococcus aureus; assay: Antibacterial property evaluation 2 (halo test 1); assay type: cell-based; details: JISL1902
From the text: The following reagents, etc, were used for minimum inhibitory concentration (MIC) measurement and halo test. • Staphylococcus aureus: strain of NBRC15035, NITE • Escherichia coli: strain of […], NITE • Potassium lactate manufactured by Fujifilm Wako Pure Chemical • Medium of Muller-Hinton broth: Becton, Dickinson and Company • Media for revival of L-dried specimens “DAIGO” manufactured by Fujifilm Wako Pure Chemical • Calcium chloride manufactured by Fuji Film Wako Pure Chemical • Magnesium chloride manufactured by Fuji Film Wako Pure Chemical • […] Snow Brand • Meat extract: from Solabia Biokar Diagnostics • Peptone: from Solabia Biokar Diagnostics • Sodium chloride manufactured by Fuji Film Wako Pure Chemical • Agar manufactured by Fuji Film Wako Pure Chemical […]

[10] = system: Staphylococcus aureus; assay: Antibacterial evaluation of antibacterial composition (with paraben); assay type: cell-based; details: 1.0 mg/mL paraben and/or 1.0 mg/mL formulation
Procedure: as §2
(§3) Antibacterial compositions prepared to have the composition having the components (A) and (B) and paraben in an equal amount (working examples 597 to 612, wherein 1.0 mg/mL of paraben and 1.0 mg/mL of the respective working examples 597 to 612 are combined to be 2.0 mg/mL of the composition); the comparative example 27 containing only of water and paraben (at the concentration of 1.0 mg/mL of paraben); and reference example 1 containing L-lysine and citric acid (at the concentration of 1.0 mg/mL) were each subjected to a test performed by a method similar to and as explained in the section of 9-1 based on the presence or absence of the bacterial growth to evaluate the presence or absence of the antibacterial activity.

[11] = system: Escherichia coli; assay: as above; assay type: cell-based; details: 1.0 mg/mL paraben and/or 1.0 mg/mL formulation
Procedure: as §2, §3

[12] = Component (A) amino acid; cited from earlier work
[13] = Adhesiveness evaluation (adhesion rate to filter paper); assay type: physicochemical; details: vacuum dehydration for 8 hours at 60° C.
Procedure: The adhesion rates of the samples were each calculated from the weight change of the filter paper (Table 9). As a blank test, 100 μL of water was dropped on the filter paper, and this filter paper was dried in a vacuum. The change in weight was measured and used as the correction value.

[14] = components (A) and (B) at the compounding molar ratio shown

| Structure (SMILES) | state at 25° C. [1, 14] | state at 25° C. ([3]; Tables 2A/2B) | Moisture eduction rate [4] | Moisture content before test (A) [4] | Presence or absence of hydrates [4] | other results |
| --- | --- | --- | --- | --- | --- | --- |
| CCCCCCCC/C=C\CCCCCCCC(=O)O.NCCCC[C@H](N)C(=O)O [Formulation 7] | Solid | – | – | – | – | Hygroscopicity test Moisture content after test [2]: 2.1%; Presence or absence of hydrates [2]: Present; n-hydrate [2]: Multihydrate; state at 25° C. ([3]; Table 3): Solid |
| N=C(N)NCCC[C@H](N)C(=O)O.O=C(O)CC(O)(CC(=O)O)C(=O)O [Formulation 58] | Liquid | Liquid | 21.8% | 20.0% | Present | – |
| CCCCCCCC/C=C\CCCCCCCC(=O)O.CCCCCCCC/C=C\CCCCCCCC(=O)O.N=C(N)NCCC[C@H](N)C(=O)O [Formulation 70] | Liquid | – | – | – | – | Hygroscopicity test Moisture content after test [2]: 9.4%; Presence or absence of hydrates [2]: Present; n-hydrate [2]: Multihydrate; state at 25° C. ([3]; Table 3): Liquid |
| N[C@@H](Cc1c[nH]cn1)C(=O)O.O=C(O)[C@H](O)[C@@H](O)[C@H](O)[C@H](O)CO [Formulation 93] | Liquid | Liquid | 20.4% | 20.0% | Present | state at 25° C. ([1]; components (A) and (B) at the compounding molar ratio shown, listed as Working example 93): liquid |
| NCC(=O)O.O=C(O)CC(O)(CC(=O)O)C(=O)O [Formulation 142] | Liquid | Liquid | 32.2% | 20.0% | Present | state at 25° C. ([1]; components (A) and (B) at the compounding molar ratio shown, listed as Working example 142): liquid; n-hydrate [4]: Hemi- |
| NCCCC(=O)O.O=C(O)[C@H](O)[C@@H](O)[C@H](O)[C@H](O)CO [Formulation 175] | Liquid | Liquid | 36.7% | 20.0% | Present | state at 25° C. ([1]; components (A) and (B) at the compounding molar ratio shown, listed as Working example 175): liquid; n-hydrate [4]: Mono- |
| N[C@@H](CO)C(=O)O.O=C(O)[C@H](O)[C@@H](O)[C@H](O)[C@H](O)CO [Formulation 243] | Liquid | Liquid | 41.6% | 20.0% | Present | state at 25° C. ([1]; components (A) and (B) at the compounding molar ratio shown, listed as Working example 243): liquid; n-hydrate [4]: Mono- |
| CC(O)C(=O)[O-].[K+] (centres unmarked) [Formulation 428] | – | Solid | 87.5% | 20.0% | Absent | state at 25° C. [1]: Solid; MIC Staphylococcus aureus [5]: 150 mg/mL; MIC Escherichia coli [6]: 100 mg/mL |
| CCCC[N+](CCCC)(CCCC)CCCC.[Br-] [Formulation 430] | – | Solid | 70.0% | 20.0% | Absent | state at 25° C. [1]: Solid; Solubility into 20 wt. % aqueous solution of the formulations: AE [7]: ⊚ (1.0 wt. % or more; no crystal precipitation was observed) |
| CCCCn1cc[n+](C)c1.F[B-](F)(F)F [Formulation 431] | – | Liquid | 71.5% | 20.0% | Absent | state at 25° C. [1]: Solid; Solubility into 20 wt. % aqueous solution of the formulations: AE [7]: ⊚ (1.0 wt. % or more; no crystal precipitation was observed) |
| OCC(O)CO [Formulation 432] | – | Liquid | 89.7% | 20.0% | Absent | Relative infiltration rates of active component (ascorbyl glucoside) into skin [8]: 5 |
| CCCCCCCC/C=C\CCCCCCCC(=O)[O-].[Na+] [Formulation 433, reference compound] | – | – | – | – | – | Hygroscopicity test Moisture content after test [2]: 0.0%; state at 25° C. ([3]; Table 3): Solid |
| CCO [Formulation 436] | – | – | – | – | – | state at 25° C. [1]: Liquid; Halo test 1: Presence or absence of halo ([9]; Concentration 10 Wt. % aqueous solution on filter paper): Absent; Halo test 1: Presence or absence of halo ([9]; Concentration 50 Wt. % aqueous solution on filter paper): Absent |
| COC(=O)c1ccc(O)cc1 [compound 27, methylparaben] | – | – | – | – | – | presence or absence of the antibacterial activity [10]: does not exhibit any antibacterial activity; presence or absence of the antibacterial activity [11]: does not exhibit any antibacterial activity |
| N[C@@H](CS)C(=O)O [cysteine] | – | – | – | – | – | isoelectric points of amino acids (values in parentheses) [12]: (5.07) |
| CCO [ethanol, reference compound] | – | – | – | – | – | presence or absence of halos (halo test 1) ([9]; Staphylococcus aureus): no halo was observed; adhesion to the filter paper [13]: did not adhere to the filter paper |
| CSCC[C@H](N)C(=O)O [methionine] | – | – | – | – | – | isoelectric points of amino acids (values in parentheses) [12]: (5.74) |
| N[C@@H](Cc1ccccc1)C(=O)O [phenylalanine] | – | – | – | – | – | isoelectric points of amino acids (values in parentheses) [12]: (5.48) |
| O=C(O)[C@@H]1CCCN1 [proline] | – | – | – | – | – | isoelectric points of amino acids (values in parentheses) [12]: (6.30) |
| N[C@@H](Cc1c[nH]c2ccccc12)C(=O)O [tryptophan] | – | – | – | – | – | isoelectric points of amino acids (values in parentheses) [12]: (5.89) |
